Data from PubChem BioAssay (NCI).
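Growth conditions: 96-well plates. Treatment: test compound, 48 hours, 5 concentrations. Analysis: linear interpolation between bracketing concentrations; unreached endpoints set to highest concentration. TGI: concentration producing complete growth inhibition.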 Where a SMILES comes first, the peptide text is derived from it.

Columns and labels:
Assay in all cases: growth of human tumour cells (NCI), 48 h
786-0 renal = system: 786-0 renal
A498 renal = system: A498 renal
CCRF-CEM leukemia = system: CCRF-CEM leukemia
HL-60(TB) leukemia = system: HL-60(TB) leukemia
IGROV1 ovarian = system: IGROV1 ovarian
KM12 colon = system: KM12 colon
LOX IMVI melanoma = system: LOX IMVI melanoma
MDA-N = system: MDA-N
OVCAR-4 ovarian = system: OVCAR-4 ovarian
OVCAR-8 ovarian = system: OVCAR-8 ovarian
SF-295 CNS = system: SF-295 CNS
TK-10 renal = system: TK-10 renal
UO-31 renal = system: UO-31 renal

SMILES | TGI (786-0 renal) [µM] | TGI (A498 renal) [µM] | TGI (CCRF-CEM leukemia) [µM] | TGI (HL-60(TB) leukemia) [µM] | TGI (IGROV1 ovarian) [µM] | TGI (KM12 colon) [µM] | TGI (LOX IMVI melanoma) [µM] | TGI (MDA-N) [µM] | TGI (OVCAR-4 ovarian) [µM] | TGI (OVCAR-8 ovarian) [µM] | TGI (SF-295 CNS) [µM] | TGI (TK-10 renal) [µM] | TGI (UO-31 renal) [µM]
CC(C)CCCC(C)[C@H]1CC[C@H]2n3c(nc4ccccc43)CCC[C@]12C (stereo not given in full) | 37.3 | 28 | 49 | 32.3 | 34.6 | 52.5 | > 100 | 32.4 | 31.5 | 37.2 | 30.7 | 38.2 | 28.6
O=C(Oc1c(Cl)cc(C2(c3cc(Cl)c(OC(=O)c4ccccc4)c(Cl)c3)CCCCC2)cc1Cl)c1ccccc1 | 27.5 | 24.1 | 30.1 | 23.5 | 23.4 | 23.9 | 29.1 | 25.6 | 32.3 | 34.1 | 28.6 | 30.4 | 35.3
C=C1C(=O)O[C@@H]2/C=C(\C)CC/C=C(\C)CC[C@@]12O | 2.71 | 24.8 | 0.607 | 3.02 | 7.63 | 25 | 5.23 | 6.42 | 4.86 | 5.18 | 25.2 | 3.42 | 2.86
COc1cc(/C=C2\N=C(c3ccccc3)N(c3ccc(C(=O)c4ccccc4)cc3N3C(=O)/C(=C/c4ccc(O)c(OC)c4)N=C3c3ccccc3)C2=O)ccc1O | 61.2 | 36.7 | > 100 | 16 | 29.7 | 22.4 | 37.1 | 40 | 84.4 | 32.5 | 28.8 | 51.9 | 27.6
CC(=O)Nc1cccc(N2C(=O)/C(=C\c3cccc(Oc4ccccc4)c3)S(=O)(=O)C2c2ccccc2)c1 (stereo not given) | > 100 | > 100 | > 100 | 50.4 | > 100 | > 100 | > 100 | > 100 | > 100 | > 100 | > 100 | > 100 | > 100
CCOC(=O)CCC(C(=O)OCC)n1nc2ccc(Nc3c(C)[n+]([O-])c4cc(F)c(OCC)cc4[n+]3[O-])cc2n1 (stereo not given) | 71.5 | > 100 | > 100 | > 100 | > 100 | > 100 | > 100 | > 100 | > 100 | > 100 | > 100 | > 100 | > 100
NC(=O)C1CCCN1C(=O)C(N)Cc1ccccc1 (stereo not drawn) (H-Phe-Pro-NH2; configuration not given here) | – | > 100 | > 100 | > 100 | > 100 | – | > 100 | > 100 | > 100 | > 100 | > 100 | > 100 | > 100
OCC(O)CNc1ncnc2ccccc12 (stereo not given) | > 100 | > 100 | > 100 | > 100 | > 100 | > 100 | > 100 | > 100 | > 100 | > 100 | > 100 | > 100 | > 100
CN(CC(=O)O)Cc1c(O)c(Cl)cc(Cl)c1Cl | > 100 | > 100 | 50.4 | 44.6 | > 100 | > 100 | > 100 | > 100 | > 100 | > 100 | > 100 | > 100 | > 100
Clc1cc(Cl)c2cc3cccc[n+]3cc2c1Cl | 46.7 | 34 | 37.2 | 29.7 | – | – | 34.7 | 32.8 | 30.2 | 31 | 39.8 | 40.2 | 28.4
C[C@@H]1C(=O)O[C@H]1[C@H](O)CO | > 100 | > 100 | > 100 | > 100 | – | > 100 | > 100 | > 100 | > 100 | > 100 | > 100 | > 100 | –
CNC1Cc2c[nH]c3cccc(c23)C12C=C(C)C(=O)O2 (stereo not given) | > 100 | > 100 | > 100 | > 100 | > 100 | > 100 | > 100 | > 100 | > 100 | > 100 | > 100 | > 100 | > 100
